US10010558B2, “Frankiamicin A compositions and methods” (STC.UNM, priority 2015, dated 2018)
Where two headings read alike, the source gives them in different places.

Assays:
Format in all cases: cell-based
[1] = test system: P. aeruginosa; test: Antimicrobial MTT viability assay, P. aeruginosa
[2] = test system: He; test: Anticancer MTT viability assay, He cells; details: He cancer cell line, 48 hours incubation, 0-100 μM
[3] = test system: methicillin-resistant S. aureus (MRSA); test: Antimicrobial MTT viability assay, MRSA; details: for MIC: MRS(A)
[4] = test system: Jurk; test: Anticancer MTT viability assay, Jurk cells; details: Jurk cancer cell line, 48 hours incubation, 0-100 μM
[5] = test system: MC; test: Anticancer MTT viability assay, MC cells; details: MC cancer cell line, 48 hours incubation, 0-100 μM
[6] = test system: S. aureus; test: Antimicrobial MTT viability assay, S. aureus; details: for MIC: S. aureus
Experimental: Antimicrobial and anticancer assays were conducted by quantifying viability of cells exposed to frankiamicin A (2-fold serial diluted in DMSO) at concentrations ranging from 0-100 μM using an MTT assay (Frolova et al., 2013, J Med Chem 56:6886-6900). For antimicrobial assays, a liquid culture of each test strain was grown overnight at 37° C. in TSB media in a rotary incubator. The resulting culture was diluted 1:100 into fresh media and 100 μL aliquots were transferred to a 96-well plate. Serial diluted compound was added to individual wells and cells were incubated at 37° C. for either 6 hours or 18 hours prior to MTT assay. Anticancer assays were conducted using approximately 4000 cells incubated overnight at 37° C. in 100 μL DMEM media supplemented with 10% FBS, adding serial diluted compound, and incubating for 48 hours prior to MTT assay. Assays of T. cruzi (ATCC 30013) were conducted by growing cells unshaken at 25° C. in ATCC Medium 1029 (LIT Medium) for five days, diluting 1:10 into fresh media, adding 100 μM frankiamicin A, incubating for an additional eight days, and assessing cell viability by microscopy using an untreated control for comparison.

[7] = test system: Y. pestis
[8] = test system: S. pyogenes; test: Antimicrobial MTT viability assay, S. pyogenes
[9] = test system: A. baumanii; test: Antimicrobial MTT viability assay, A. baumanii
[10] = test system: T. cruzi (ATCC 30013); test: T. cruzi viability assay by microscopy; details: 100 μM frankiamicin A, eight days
[11] = test system: C. albicans; test: Antimicrobial MTT viability assay, C. albicans; details: 0-100 μM

frankiamicin A
MIC ([1]; assessed after 6 h incubation): >1 µM | MIC ([1]; assessed after 18 h incubation): >1 µM | IC50 [2]: > 1000 nM | MIC ([3]; assessed after 6 h incubation): ~ | MIC ([3]; assessed after 18 h incubation): >1 µM | antimicrobial activity ([3]; methicillin-resistant S. aureus (MRSA)): detectable antimicrobial activity | IC50 [4]: > 1000 nM | IC50 [5]: > 1000 nM | MIC ([6]; assessed after 6 h incubation): ~1 µM | MIC ([6]; assessed after 18 h incubation): >1 µM | antimicrobial activity ([6]; wild-type S. aureus): detectable antimicrobial activity | MIC ([7]; assessed after 6 h incubation): >1 µM | MIC ([7]; assessed after 18 h incubation): >1 µM | MIC ([8]; assessed after 6 h incubation): >1 µM | MIC ([8]; assessed after 18 h incubation): >1 µM | MIC ([9]; assessed after 6 h incubation): >1 µM | MIC ([9]; assessed after 18 h incubation): >1 µM | IC50 [10]: > 1000 nM | IC50 [11]: > 1000 nM
